From ChEMBL document CHEMBL1142322, “Synthesis and biological evaluation of novel 8-aminomethylated oroxylin A analogues as alpha-glucosidase inhibitors” (Bioorg Med Chem Lett, 2008) come the findings set out here.

Each structure is given as a SMILES string. The source made the active and inactive calls. The calls are words filed in the database; no cut-off is given here.

The species named for test [1] is Rattus norvegicus. Kind of test: (§1) Inhibition of rat intestinal alpha-glucosidase.
The subject of test [2] is Saccharomyces cerevisiae. Kind of test: (§2) Inhibition of yeast alpha-glucosidase.
Test [3] is described as follows: as §1.
Test [4] is described as follows: as §2. The arrangement: species or system Saccharomyces cerevisiae.
In test [5] the target is Sucrase-isomaltase, intestinal (Homo sapiens, UniProt P14410). In words: Inhibition of sucrase.
Sequence of Sucrase-isomaltase, intestinal (P14410 2-1007 limits assumed): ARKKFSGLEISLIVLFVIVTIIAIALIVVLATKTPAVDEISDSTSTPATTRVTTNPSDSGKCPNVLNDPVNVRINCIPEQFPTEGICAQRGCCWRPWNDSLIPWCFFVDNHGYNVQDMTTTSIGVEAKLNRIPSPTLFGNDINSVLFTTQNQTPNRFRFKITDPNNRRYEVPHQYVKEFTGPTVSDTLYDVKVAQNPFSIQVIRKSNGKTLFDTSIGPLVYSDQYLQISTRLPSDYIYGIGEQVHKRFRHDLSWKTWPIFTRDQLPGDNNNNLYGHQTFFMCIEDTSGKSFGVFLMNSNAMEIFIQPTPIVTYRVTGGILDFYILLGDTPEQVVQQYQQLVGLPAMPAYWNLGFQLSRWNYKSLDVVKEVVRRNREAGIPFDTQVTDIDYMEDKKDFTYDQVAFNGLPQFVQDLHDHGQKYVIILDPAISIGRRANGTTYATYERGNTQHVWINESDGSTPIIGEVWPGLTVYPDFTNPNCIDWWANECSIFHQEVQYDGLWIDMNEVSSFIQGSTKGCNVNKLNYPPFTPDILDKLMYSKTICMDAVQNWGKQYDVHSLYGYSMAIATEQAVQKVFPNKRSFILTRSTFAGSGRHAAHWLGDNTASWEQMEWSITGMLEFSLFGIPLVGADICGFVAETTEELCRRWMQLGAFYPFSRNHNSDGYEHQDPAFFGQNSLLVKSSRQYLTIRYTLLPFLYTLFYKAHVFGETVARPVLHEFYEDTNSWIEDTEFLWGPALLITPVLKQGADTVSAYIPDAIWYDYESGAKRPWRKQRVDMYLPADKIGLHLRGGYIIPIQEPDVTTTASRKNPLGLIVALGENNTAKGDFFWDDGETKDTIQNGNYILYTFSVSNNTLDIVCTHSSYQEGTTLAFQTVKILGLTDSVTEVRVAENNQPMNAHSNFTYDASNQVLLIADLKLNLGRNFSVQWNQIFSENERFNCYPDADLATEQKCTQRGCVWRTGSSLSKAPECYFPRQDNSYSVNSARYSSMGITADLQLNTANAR
Sequence of Sucrase-isomaltase, intestinal (P14410 1008-1827 limits assumed): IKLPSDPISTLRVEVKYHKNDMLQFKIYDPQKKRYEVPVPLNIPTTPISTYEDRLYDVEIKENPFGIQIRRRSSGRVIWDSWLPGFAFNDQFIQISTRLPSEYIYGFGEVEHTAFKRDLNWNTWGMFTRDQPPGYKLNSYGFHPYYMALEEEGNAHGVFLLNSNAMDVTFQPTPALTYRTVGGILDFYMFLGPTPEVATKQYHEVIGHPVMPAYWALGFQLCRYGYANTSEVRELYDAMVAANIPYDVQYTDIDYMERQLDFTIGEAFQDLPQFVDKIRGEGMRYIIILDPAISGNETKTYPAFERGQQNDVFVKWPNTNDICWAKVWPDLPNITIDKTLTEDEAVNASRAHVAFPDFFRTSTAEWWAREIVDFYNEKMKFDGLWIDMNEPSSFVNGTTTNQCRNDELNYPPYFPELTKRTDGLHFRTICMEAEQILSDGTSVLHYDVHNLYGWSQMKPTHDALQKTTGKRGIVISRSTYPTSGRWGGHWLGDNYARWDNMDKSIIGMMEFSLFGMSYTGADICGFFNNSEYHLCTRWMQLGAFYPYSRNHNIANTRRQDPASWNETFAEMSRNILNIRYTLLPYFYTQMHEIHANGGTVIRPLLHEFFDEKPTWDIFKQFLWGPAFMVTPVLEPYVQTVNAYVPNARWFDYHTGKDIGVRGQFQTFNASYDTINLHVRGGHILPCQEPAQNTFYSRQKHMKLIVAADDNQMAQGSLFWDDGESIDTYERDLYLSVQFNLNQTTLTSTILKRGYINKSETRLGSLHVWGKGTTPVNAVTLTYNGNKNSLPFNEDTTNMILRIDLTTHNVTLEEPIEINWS

`COc1c(O)c(CN(c2ccccc2)c2ccccc2)c2oc(-c3ccccc3)cc(=O)c2c1O`: the result in test [1] and in test [2] was inactive. Compound `C[C@H]1O[C@H](O[C@H]2[C@H](O)[C@@H](O)[C@@H](O[C@H]3[C@H](O)[C@@H](O)C(O)O[C@@H]3CO)O[C@@H]2CO)[C@H](O)[C@@H](O)[C@@H]1N[C@H]1C=C(CO)[C@@H](O)[C@H](O)[C@H]1O` (some centres undefined) [ACARBOSE] registered an IC50 in test [3] of 6.38 µM. Take `COc1c(O)c(CNCc2ccccc2)c2oc(-c3ccccc3)cc(=O)c2c1O`: the result in test [1] and in test [2] was inactive. For `COc1c(O)c(CN2CCOCC2)c2oc(-c3ccccc3)cc(=O)c2c1O`, the IC50 came out at 76 µM in test [3] and 150 µM in test [4]. `COc1c(O)c(CN2CCN(C)CC2)c2oc(-c3ccccc3)cc(=O)c2c1O`: the IC50 in test [3] came to 35.4 µM; in test [4], 98.8 µM. For the compound `COc1c(O)c(CN2CCCCC2)c2oc(-c3ccccc3)cc(=O)c2c1O`, the values for the IC50 in test [3] and in test [4] were 50.7 µM and 167 µM, respectively. As to `CCCCNCc1c(O)c(OC)c(O)c2c(=O)cc(-c3ccccc3)oc12`, the outcome in test [1] and in test [2] was inactive. `OC[C@H]1NC[C@H](O)[C@@H](O)[C@@H]1O` [DUVOGLUSTAT] yielded an IC50 in test [4] of 49.3 µM. Consider `COc1c(O)c(CN2CCN(C(=O)OC(C)(C)C)CC2)c2oc(-c3ccccc3)cc(=O)c2c1O`, for which the figures for the concentration for half-maximal inhibition (IC50) in test [3] and in test [4] were 75 µM and 84.4 µM, respectively. In the case of `COc1c(O)c(CN(C)Cc2ccccc2)c2oc(-c3ccccc3)cc(=O)c2c1O`, the result in test [1] and in test [2] was inactive.

For the compound `O=c1cc(-c2ccccc2)oc2cc(O)cc(O)c12` [CHRYSIN], the results for the IC50 in test [3] and in test [4] were 376 µM and 371 µM, respectively.

Take `O=c1cc(-c2ccccc2)oc2cc(O)c(O)c(O)c12` [BAICALEIN]: the half-inhibitory concentration (IC50) in test [3] was found to be 215 µM; in test [4], 203 µM; in test [5], 52 µM. As for `COc1c(O)c(CN(C)Cc2ccco2)c2oc(-c3ccccc3)cc(=O)c2c1O`, the outcome in test [1] and in test [2] was inactive.

On to `COc1c(O)c(CN2CCCC2)c2oc(-c3ccccc3)cc(=O)c2c1O`, for which the result in test [1] and in test [2] was inactive. As to `COc1c(O)cc2oc(-c3ccccc3)cc(=O)c2c1O` [OROXYLIN A], the IC50 came to 135 µM in test [3] and 124 µM in test [4].

Broadly, the IC50 is the concentration that gives 50% inhibition.
